Measurements published in patent US10508085B2, “Compounds and methods for IDO and TDO modulation, and indications therefor” (Plexxikon Inc., priority 2016, dated 2019).
Like-named read-outs stand apart in the source and are kept apart here.

What was measured:
[1] = target: T1, Human Indoleamine 2,3-dioxygenase (IDO) (Homo sapiens, UniProt P14902); assay: Human IDO enzymatic assay (kynurenine level); assay type: biochemical
T1 construct: His tag (N); made in house; host or cells: E. coli
Outline: (§1)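 Compound is mixed with His-tagged enzyme from E. coli in pH 6.5 phosphate buffer containing ascorbate, methylene blue and catalase, at room temperature. IDO uses 6 nM enzyme and 10 μM Trp for 20 min. TDO uses 1 nM enzyme and 350 μM Trp for 70 min. TCA stops the reaction, and IC50 is derived from kynurenine levels.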

[2] = target: T2, Human Tryptophan 2,3-dioxygenase (TDO) (Homo sapiens, UniProt P48775); assay: Human TDO enzymatic assay (kynurenine level); assay type: biochemical
T2 construct: His tag (N); made in house; host or cells: E. coli
Outline: as §1

[3] = target: T3, human IDO (IDO1-expressing HEK293 cells) (Homo sapiens, UniProt P14902); assay: Cell based kynurenine assay, IDO1-expressing HEK293 cell clones; conditions: IDO1-expressing HEK293 cells, 24 hours incubation; geometric mean; read-out: HEK293 IDO1 Kynurenine GMean IC50 (μM) (Cellular Assay)
T3 construct: expressed in transfected cells
Experimental: (§2) Determine Inhibitor Activity Against IDO or TDO in Cell Based Kynurenine Assay
(§3) IDO1-expressing or TDO-expressing HEK293 cell clones are generated upon stable transfection of plasmids expressing human IDO or human TDO under the control of CMV promoter. Cells are selected in DMEM media supplemented with 10% fetal bovine serum and 1 mg/ml G418 at 37° C. in a humidified incubator supplied with 5% CO2. The assays are performed as follows.
(§4) Cells were seeded in a 96 well plate in 50 μL of culture media at a density of 2.5×10^4 per well. Serial dilutions of compounds (in total volume of 50 μL culture media) are added into cells. 4 wells containing 0.2% DMSO treated cells serve as high controls and 4 wells containing media only with 0.2% DMSO serve as low controls. After 24 hours of incubation, the supernatant was transferred to a 384 well reaction plate and the kynurenine level determined. The percentage inhibition at individual concentrations relative to high and low controls is calculated. The data is analyzed by using nonlinear regression to generate IC50 values.

[4] = target: T4, human TDO (TDO-expressing HEK293 cells) (Homo sapiens, UniProt P48775); assay: Cell based kynurenine assay, TDO-expressing HEK293 cell clones
T4 construct: expressed in transfected cells
Experimental: as §2, §3, §4

[5] = 6 nM IDO, 10 μM L-Trp, geometric mean, read-out: IDO1 GMean: IC50 (μM) (Biochemical Assay)
[6] = 1 nM TDO, 350 μM L-Trp, geometric mean, read-out: TDO GMean: IC50 (μM) (Biochemical Assay)
[7] = TDO-expressing HEK293 cells, 24 hours incubation, geometric mean, read-out: HEK293 TDO Kynurenine GMean IC50 (μM) (Cellular Assay)
[8] = biochemical assay, comparative examples, 4,6 versus 5,7 indazole, read-out: IDO1
[9] = biochemical assay, comparative examples, 4,6 versus 5,7 indazole, read-out: TDO
[10] = cellular assay, HEK293, 24 hours, comparative examples, read-out: hTDO

T3 sequence (P14902 whole entry): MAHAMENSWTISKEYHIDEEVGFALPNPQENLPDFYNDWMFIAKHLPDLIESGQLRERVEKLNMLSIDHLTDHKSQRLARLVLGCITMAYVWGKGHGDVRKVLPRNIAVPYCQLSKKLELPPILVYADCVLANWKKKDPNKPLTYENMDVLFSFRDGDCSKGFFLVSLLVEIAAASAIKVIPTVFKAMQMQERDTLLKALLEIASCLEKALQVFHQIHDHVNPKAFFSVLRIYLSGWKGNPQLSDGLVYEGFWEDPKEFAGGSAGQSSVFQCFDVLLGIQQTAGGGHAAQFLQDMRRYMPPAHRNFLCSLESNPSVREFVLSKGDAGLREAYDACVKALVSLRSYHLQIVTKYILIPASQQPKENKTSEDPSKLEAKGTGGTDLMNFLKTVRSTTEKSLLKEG
T1 sequence (P14902 whole entry): as above
T4 sequence (P48775 whole entry): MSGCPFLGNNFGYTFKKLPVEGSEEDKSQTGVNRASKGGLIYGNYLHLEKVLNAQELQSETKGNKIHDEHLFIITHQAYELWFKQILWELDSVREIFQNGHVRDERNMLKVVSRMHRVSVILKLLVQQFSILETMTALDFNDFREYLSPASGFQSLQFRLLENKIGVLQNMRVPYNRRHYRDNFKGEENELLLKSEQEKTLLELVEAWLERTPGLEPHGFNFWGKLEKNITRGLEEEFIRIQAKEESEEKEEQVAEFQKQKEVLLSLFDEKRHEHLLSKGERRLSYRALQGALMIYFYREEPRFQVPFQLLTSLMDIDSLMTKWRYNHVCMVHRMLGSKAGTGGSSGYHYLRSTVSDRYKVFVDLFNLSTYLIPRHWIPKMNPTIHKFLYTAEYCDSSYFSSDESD
T2 sequence (P48775 whole entry): as above

| IC50 [1, 5] [µM] | IC50 [2, 6] [µM] | IC50 [3] [µM] | IC50 [4, 7] [µM] | IC50 [1, 8] [µM] | IC50 [2, 9] [µM] | IC50 [4, 10] [µM] | Structure (SMILES) |
| --- | --- | --- | --- | --- | --- | --- | --- |
| 0.0001 to 10 | 0.0001 to 10 | 0.0001 to 10 | 0.0001 to 10 |  |  |  | CC(C)(C)OC(=O)N1CCC(C(C)(C)C(O)c2cc(Cl)cc3cn[nH]c23)CC1 (racemic) [Compound P-0163, tert-butyl 4-(1-(5-chloro-1H-indazol-7-yl)-1-hydroxy-2-methylpropan-2-yl)piperidine-1-carboxylate] |
| 0.0001 to 10 | 0.0001 to 10 | 0.0001 to 10 | 0.0001 to 10 |  |  |  | OC(c1c(F)c(Cl)cc2cn[nH]c12)C12CCC(CC1)CC2 (racemic) [Compound P-0294, bicyclo[2.2.2]octan-1-yl(5-chloro-6-fluoro-1H-indazol-7-yl)methanol] |
| 0.0001 to 10 | 0.0001 to 10 | > 10 | > 10 |  |  |  | OC(c1cccnc1)c1cc(Cl)cc2cn[nH]c12 (stereo not shown) [Compound P-0001, (5-chloro-1H-indazol-7-yl)(pyridin-3-yl)methanol] |
| 0.0001 to 10 | 0.0001 to 10 | 0.0001 to 10 | 0.0001 to 10 |  |  |  | OC(c1cc(Cl)cc2cn[nH]c12)C1CCCCC1 (stereo not shown) [Compound P-0002, (5-chloro-1H-indazol-7-yl)(cyclohexyl)methanol] |
| 0.0001 to 10 | 0.0001 to 10 | 0.0001 to 10 | 0.0001 to 10 |  |  |  | OC(c1cc(Cl)cc2cn[nH]c12)C1(F)CCCCC1 (stereo not shown) [Compound P-0004, (5-chloro-1H-indazol-7-yl)(1-fluorocyclohexyl)methanol] |
| 0.0001 to 10 | 0.0001 to 10 | 0.0001 to 10 | 0.0001 to 10 |  |  |  | OC(c1cc(Cl)cc2cn[nH]c12)C1CCCC1 (stereo not shown) [Compound P-0005, (5-chloro-1H-indazol-7-yl)(cyclopentyl)methanol] |
| 0.0001 to 10 | 0.0001 to 10 | 0.0001 to 10 | 0.0001 to 10 |  |  |  | CC1(C(O)c2cc(Cl)cc3cn[nH]c23)CCCCC1 (stereo not shown) [Compound P-0006, (5-chloro-1H-indazol-7-yl)(1-methylcyclohexyl)methanol] |
| 0.0001 to 10 | 0.0001 to 10 | 0.0001 to 10 | 0.0001 to 10 |  |  |  | OC(CC1CCCCC1)c1cc(Cl)cc2cn[nH]c12 (stereo not shown) [Compound P-0007, 1-(5-chloro-1H-indazol-7-yl)-2-cyclohexylethan-1-ol] |
| 0.0001 to 10 | 0.0001 to 10 | 0.0001 to 10 | 0.0001 to 10 |  |  |  | CC(C)(C1CCCCC1)C(O)c1cc(Cl)cc2cn[nH]c12 (stereo not shown) [Compound P-0008, 1-(5-chloro-1H-indazol-7-yl)-2-cyclohexyl-2-methylpropan-1-ol] |
| 0.0001 to 10 | 0.0001 to 10 | 0.0001 to 10 | > 10 |  |  |  | OC(CCC1CCCCC1)c1cc(Cl)cc2cn[nH]c12 (stereo not drawn) [Compound P-0009, 1-(5-chloro-1H-indazol-7-yl)-3-cyclohexylpropan-l-ol] |
| 0.0001 to 10 | 0.0001 to 10 | 0.0001 to 10 | 0.0001 to 10 |  |  |  | OC(c1cc(Cl)cc2cn[nH]c12)C12CC3CC(CC(C3)C1)C2 [Compound P-0010, ((1S,3s)-adamantan-l-yl)(5-chloro-1H-indazol-7-yl)methanol] |
| 0.0001 to 10 | 0.0001 to 10 | > 10 | 0.0001 to 10 |  |  |  | OC1(c2cc(Cl)cc3cn[nH]c23)CC2(CCC2)C1 [Compound P-0012, 2-(5-chloro-1H-indazol-7-yl)spiro[3.3]heptan-2-ol] |
| 0.0001 to 10 | 0.0001 to 10 | 0.0001 to 10 | 0.0001 to 10 |  |  |  | CC1(C(O)c2cc(C(F)(F)F)cc3cn[nH]c23)CCCCC1 (stereo not shown) [Compound P-0013, (1-methylcyclohexyl)(5-(trifluoromethyl)-1H-indazol-7-yl)methanol] |
| 0.0001 to 10 | 0.0001 to 10 | 0.0001 to 10 | 0.0001 to 10 |  |  |  | Cc1cc(C(O)C2(C)CCCCC2)c2[nH]ncc2c1 (stereo not shown) [Compound P-0014, (5-methyl-1H-indazol-7-yl)(1-methylcyclohexyl)methanol] |
| 0.0001 to 10 | 0.0001 to 10 | 0.0001 to 10 |  |  |  |  | Cc1ccc2cn[nH]c2c1C(O)C1(C)CCCCC1 (stereo not shown) [Compound P-0015, (6-methyl-1H-indazol-7-yl)(1-methylcyclohexyl)methanol] |
| 0.0001 to 10 | 0.0001 to 10 | 0.0001 to 10 | 0.0001 to 10 |  |  |  | OC(c1cc(Cl)cc2cn[nH]c12)C1CC(F)(F)C1 (stereo not shown) [Compound P-0017, (5-chloro-1H-indazol-7-yl)(3,3-difluorocyclobutyl)methanol] |
| 0.0001 to 10 | 0.0001 to 10 | 0.0001 to 10 | 0.0001 to 10 |  |  |  | CC1(C(O)c2cc(Cl)cc3cn[nH]c23)CC(F)(F)C1 (stereo not shown) [Compound P-0018, (5-chloro-1H-indazol-7-yl)(3,3-difluoro-1-methylcyclobutyl)methanol] |
|  | > 200 | > 10 | > 10 |  |  |  | OC1(c2cc(Cl)cc3cn[nH]c23)CC2(CCNCC2)C1 [Compound P-0020, 2-(5-chloro-1H-indazol-7-yl)-7-azaspiro[3.5]nonan-2-ol] |
| 0.0001 to 10 | 0.0001 to 10 | 0.0001 to 10 | 0.0001 to 10 |  |  |  | CC1(C(O)c2cc(Cl)cc3cn[nH]c23)CCCC1 (stereo not shown) [Compound P-0021, (5-chloro-1H-indazol-7-yl)(1-methylcyclopentyl)methanol] |
| 0.0001 to 10 | 0.0001 to 10 | 0.0001 to 10 | 0.0001 to 10 |  |  |  | OC(c1cc(Cl)cc2cn[nH]c12)C1CCC(F)(F)CC1 (stereo not shown) [Compound P-0022, (5-chloro-1H-indazol-7-yl)(4,4-difluorocyclohexyl)methanol] |
| 0.0001 to 10 | 0.0001 to 10 | 0.0001 to 10 | 0.0001 to 10 |  |  |  | CC1(C(O)c2c(Cl)c(Cl)cc3cn[nH]c23)CCCCC1 (stereo not shown) [Compound P-0025, (5,6-dichloro-1H-indazol-7-yl)(1-methylcyclohexyl)methanol] |
| 0.0001 to 10 | 0.0001 to 10 | 0.0001 to 10 | 0.0001 to 10 |  |  |  | CC(C)(Cc1ccccc1)C(O)c1cc(Cl)cc2cn[nH]c12 (stereo not shown) [Compound P-0026, 1-(5-chloro-1H-indazol-7-yl)-2,2-dimethyl-3-phenylpropan-1-ol] |
| 10 to 100 |  | > 10 |  |  |  |  | O=S1(=O)CC2(CC(O)(c3cc(Cl)cc4cn[nH]c34)C2)C1 [Compound P-0056, 6-(5-chloro-1H-indazol-7-yl)-6-hydroxy-2-thiaspiro[3.3]heptane 2,2-dioxide] |
| 0.0001 to 10 | 0.0001 to 10 | > 10 |  |  |  |  | OC(c1ccccc1)c1cccc2cncn12 (stereo not shown) [Compound P-0057, imidazo[1,5-a]pyridin-5-yl(phenyl)methanol] |
|  |  |  |  | 3.25 | 6.06 | 0.05 | OC(c1cc(Cl)cc2[nH]ncc12)C1CCCCC1 (stereo not shown) [drawing 811] |
|  |  |  |  | 6.6 | 0.16 | 0.17 | COC12CCC(C(O)c3cc(Cl)cc4[nH]ncc34)(CC1)CC2 (stereo not shown) [drawing 813] |
|  |  |  |  | 0.7 | 0.1 | 0.01 | CC(C)(C1CCN(S(C)(=O)=O)CC1)C(O)c1cc(Cl)cc2[nH]ncc12 (stereo not shown) [drawing 815] |
|  |  |  |  | 0.14 | 0.04 | 2.94 | OC1(c2cc(Cl)cc3cn[nH]c23)CC2(CCC2)C1 [drawing 818] |
|  |  |  |  | 22 | 0.04 | 0.03 | OC1(c2cc(Cl)cc3[nH]ncc23)CC2(CCC2)C1 [drawing 819] |
|  |  |  |  | ≥ 200 | 0.18 | 0.57 | OC1(c2cc(Cl)cc3[nH]ncc23)CC2(CCOCC2)C1 [drawing 821] |
